Measured values as given in patent US20210380596A1, “UPADACITINIB CRYSTAL FORM AND PREPARATION METHOD THEREFOR AND USE THEREOF” (CRYSTAL PHARMACEUTICAL (SUZHOU) CO., LTD., priority 2019, published 2021).
Converted amounts (≈) assume the structure as drawn. “And” between values parts separate entries of the source, which are not always exact repeats. Equal values may be shown once. “Also recorded” adds a separate entry of the source.

Legend:
[1] = FaSSIF, 37° C.; disclosed in WO2017066775A1; cited from earlier work
[2] = Compressibility (tablet hardness and tensile strength); assay type: physicochemical; conditions: for Diameter / Thickness: 80 mg, Φ6 mm tooling, 10 kN, after 24 h, tablets 1-3; for Average tensile strength: mean of three tablets
Method: An ENERPAC manual tablet press was used for compression. […] Until complete elastic recovery, hardness (H) was tested with an intelligent tablet hardness tester. Diameter (D) and thickness (L) were tested with a caliper. Tensile strength of the powder was calculated with the following formula: T=2H/πDL. Under a certain force, the greater the tensile strength, the better the compressibility.

[3] = Adhesiveness (material sticking to the punch); assay type: physicochemical; conditions: 30 mg, Φ8 mm tooling, 10 kN held 30 s
Method: The amount of material sticking to the punch was weighed. The compression was repeated twice and the average amount of material sticking to the punch during the compression were recorded.

[4] = Flowability (compressibility index / Carr index); assay type: physicochemical; conditions: for Bulk density (ρ0): 5-mL measuring cylinder, 500 mg; for Flowability: criteria of ICH Q4B Annex 13; for Tapped density (ρf): tapping times: 1250
Method: Compressibility index or Carr index is usually utilized to evaluate the flowability of powder and granules during the drug product process. Compressibility index test method is as follows: a certain amount of powder was added into a measuring cylinder and bulk volume was recorded. Then the powder was tapped to make it in the tightest state and the tapped volume was recorded. The bulk density ρ0 and tapped density pf were calculated. The compressibility index was calculated according to c=(ρf−ρ0)/ρf.
Equipment: ZS-2E tap density tester.
Parameter: 5-mL measuring cylinder, 500 mg, tapping times: 1250.

[5] = Stability of Form CSII drug substance on storage (XRPD, HPLC purity); assay type: physicochemical; conditions: for Chemical purity during storage: drug substance
Method: X-ray powder diffraction patterns in the present disclosure were acquired by a Bruker D2 PHASER or Bruker D8 Discover X-ray powder diffractometer. The parameters of the X-ray powder diffraction method of the present disclosure are as follows:
The method parameters for relative substances test in the present disclosure are as follows:
A certain amount of Form CSII sample was stored at different conditions of 4° C., 25° C./60% RH, 40° C./75% RH and 60° C./75% RH. Crystalline form was checked by XRPD before and after storage.

[6] = Kinetic solubility of Form CSII (saturated solutions, HPLC); assay type: physicochemical
Method: The method parameters of kinetic solubility test in the present disclosure are as follows:
A certain amount of Form CSII was suspended into pH=7.4 PBS, pH=6.5 FaSSIF and pH=5.0 FeSSIF at 25° C. or 37° C. to obtain saturated solutions. After equilibration for 24 h, 30 h and 48 h, the suspensions were filtered to obtain saturated solutions, and concentration was determined by HPLC.

[7] = Mechanical stability (tableting at 10 kN, manual grinding; XRPD); assay type: physicochemical
Method: 30 mg of Form CSII was weighed into the dies of a Φ8 mm round tooling and tableted by ENERPAC manual tablet press with 10 kN pressure. Crystalline form before and after tableting were checked by XRPD. […] 10 mg of Form CSII was weighed into a mortar and ground manually for 5 min. The crystalline form before and after grinding were checked by XRPD.

[8] = Particle size distribution (Mastersizer 3000, wet mode); assay type: physicochemical; conditions: Isopar G containing 0.2% lecithin
Method: Proton nuclear magnetic resonance (H NMR) spectrum data were collected from a Bruker Avance II DMX 400M HZ NMR spectrometer. 1-5 mg of sample was weighed and dissolved in 0.5 mL of deuterated dimethyl sulfoxide to obtain a solution with a concentration of 2-10 mg/mL. The particle size distribution data in the present disclosure were acquired by a Mastersizer 3000 laser particle size analyzer of Malvern. The test is carried out in wet mode with a Hydro MV dispersing device, and the dispersion medium is Isopar G. The method parameters of the laser particle size analyzer are as follows:
The mixtures were mixed thoroughly and transferred into the Hydro MV. The measurement was started when the shading rate is in an appropriate position.

[9] = Stability of Form CSII in drug product (formulation process and storage); assay type: physicochemical; conditions: formulation and process of Tables 14 and 15
Method: Crystalline form before and after tableting were checked by XRPD.
The drug products of Form CSII were stored under 25° C./60% RH and 40° C./75% RH in closed dishes with 1 g of desiccant for 3 months to evaluate the stability of Form CSII in drug product.

[10] = listed as Form C in WO2017066775A1
[11] = 25° C./60% RH, closed, 3 months
[12] = 40° C./75% RH, closed, 3 months
[13] = FaSSIF pH 6.5, thermodynamic from solid, pH=6.5 FaSSIF, 37° C.
[14] = FeSSIF pH 5.0, thermodynamic from solid, pH=5.0 FeSSIF, 37° C.
[15] = PBS pH 7.4, aqueous buffer, thermodynamic from solid, pH=7.4 PBS, 25° C.

CC[C@@H]1CN(C(=O)NCC(F)(F)F)C[C@@H]1c1cnc2cnc3[nH]ccc3n12 [Form C, (3S,4R)-3-ethyl-4-(3H-imidazo[1,2-a]pyrrolo [2,3-e]pyrazin-8-yl)-N-(2,2,2-trifluoroethyl) pyrrolidine-1-carboxamide, reference compound]
Solubility [1]: 220 µg/mL (≈ 578 µM)
Diameter [2, 10]: 6.00 mm and 6.01 mm
Thickness [2, 10]: 2.14 mm and 2.18 mm and 2.07 mm
Average tensile strength [2, 10]: 0.69 MPa
Average amount of material sticking to the punch [3, 10]: 0.21 mg
Bulk density (ρ0) [4, 10]: 0.3611 g/mL
Flowability [4, 10]: Very poor (32-37)
Tapped density (ρf) [4, 10]: 0.5618 g/mL

CC[C@@H]1CN(C(=O)NCC(F)(F)F)C[C@@H]1c1cnc2cnc3[nH]ccc3n12 [Form CSII, (3S,4R)-3-ethyl-4-(3H-imidazo[1,2-a]pyrrolo [2,3-e]pyrazin-8-yl)-N-(2,2,2-trifluoroethyl) pyrrolidine-1-carboxamide]
Time kept stable (crystalline state unchanged) ([5]; 4° C.): at least 3 months
Purity ([5]; 4° C., closed, 3 months): 99.41%
Solid form ([5]; 4° C., closed, 3 months): Form CSII
Purity [5, 11]: 99.42%
Solid form [5, 11]: Form CSII
Purity ([5]; 25° C./60% RH, open, 3 months): 99.43%
Solid form ([5]; 25° C./60% RH, open, 3 months): Form CSII
Purity [5, 12]: 99.42%
Solid form [5, 12]: Form CSII
Purity ([5]; 40° C./75% RH, open, 3 months): 99.44%
Solid form ([5]; 40° C./75% RH, open, 3 months): Form CSII
Purity ([5]; 60° C./75% RH, closed, 1 month): 99.43%
Solid form ([5]; 60° C./75% RH, closed, 1 month): Form CSII
Purity ([5]; 60° C./75% RH, open, 1 month): 99.48%
Solid form ([5]; 60° C./75% RH, open, 1 month): Form CSII
Purity ([5]; Initial): 99.35%
Solid form ([5]; Initial): Form CSII
Chemical purity during storage ([5]; 25° C./60% RH): above 99%
Chemical purity during storage ([5]; 40° C./75% RH and 60° C./75% RH): above 99%
solubility at 24 h [6, 13]: 740 µg/mL (≈ 1950 µM)
solubility at 30 h [6, 13]: 760 µg/mL (≈ 2000 µM)
solubility at 48 h [6, 13]: 830 µg/mL (≈ 2180 µM)
solubility at 24 h [6, 14]: 1400 µg/mL (≈ 3680 µM)
solubility at 30 h [6, 14]: 1400 µg/mL (≈ 3680 µM)
solubility at 48 h [6, 14]: 1500 µg/mL (≈ 3940 µM)
solubility at 24 h [6, 15]: 730 µg/mL (≈ 1920 µM)
solubility at 30 h [6, 15]: 740 µg/mL (≈ 1950 µM)
solubility at 48 h [6, 15]: 720 µg/mL (≈ 1890 µM)
Solubility compared with Form C ([6]; pH=7.4 PBS, FaSSIF and FeSSIF): higher
Diameter [2]: 6.05 mm and 6.04 mm and 6.03 mm
Thickness [2]: 2.35 mm and 2.16 mm and 2.12 mm
Average tensile strength [2]: 0.88 MPa
Average amount of material sticking to the punch [3]: 0.16 mg
Crystallinity after tableting ([7]; 10 kN pressure): remained basically unchanged
Crystalline state after tableting ([7]; 10 kN pressure, Φ8 mm round tooling): does not change
Crystalline state after grinding ([7]; ground manually for 5 min): does not change; also recorded: doesn't change
Crystallinity after grinding ([7]; ground manually for 5 min): remained basically unchanged
Particle size distribution [8]: uniform
Bulk density (ρ0) [4]: 0.3295 g/mL
Flowability [4]: Excellent (≤10)
Tapped density (ρf) [4]: 0.3548 g/mL
Crystalline form in the formulation process (before and after tableting, XRPD) [9]: stable
